Test results reported in ChEMBL document CHEMBL5465560, “Selectivity Literature for EUbOPEN Chemogenomic Library” (2024).
One block for each molecule: values may come before it.

Assays:
[1] = molecular target: T1, Mitogen-activated protein kinase kinase kinase 6 (Homo sapiens) (UniProt O95382); details: at 10 µM
T1 sequence (whole entry): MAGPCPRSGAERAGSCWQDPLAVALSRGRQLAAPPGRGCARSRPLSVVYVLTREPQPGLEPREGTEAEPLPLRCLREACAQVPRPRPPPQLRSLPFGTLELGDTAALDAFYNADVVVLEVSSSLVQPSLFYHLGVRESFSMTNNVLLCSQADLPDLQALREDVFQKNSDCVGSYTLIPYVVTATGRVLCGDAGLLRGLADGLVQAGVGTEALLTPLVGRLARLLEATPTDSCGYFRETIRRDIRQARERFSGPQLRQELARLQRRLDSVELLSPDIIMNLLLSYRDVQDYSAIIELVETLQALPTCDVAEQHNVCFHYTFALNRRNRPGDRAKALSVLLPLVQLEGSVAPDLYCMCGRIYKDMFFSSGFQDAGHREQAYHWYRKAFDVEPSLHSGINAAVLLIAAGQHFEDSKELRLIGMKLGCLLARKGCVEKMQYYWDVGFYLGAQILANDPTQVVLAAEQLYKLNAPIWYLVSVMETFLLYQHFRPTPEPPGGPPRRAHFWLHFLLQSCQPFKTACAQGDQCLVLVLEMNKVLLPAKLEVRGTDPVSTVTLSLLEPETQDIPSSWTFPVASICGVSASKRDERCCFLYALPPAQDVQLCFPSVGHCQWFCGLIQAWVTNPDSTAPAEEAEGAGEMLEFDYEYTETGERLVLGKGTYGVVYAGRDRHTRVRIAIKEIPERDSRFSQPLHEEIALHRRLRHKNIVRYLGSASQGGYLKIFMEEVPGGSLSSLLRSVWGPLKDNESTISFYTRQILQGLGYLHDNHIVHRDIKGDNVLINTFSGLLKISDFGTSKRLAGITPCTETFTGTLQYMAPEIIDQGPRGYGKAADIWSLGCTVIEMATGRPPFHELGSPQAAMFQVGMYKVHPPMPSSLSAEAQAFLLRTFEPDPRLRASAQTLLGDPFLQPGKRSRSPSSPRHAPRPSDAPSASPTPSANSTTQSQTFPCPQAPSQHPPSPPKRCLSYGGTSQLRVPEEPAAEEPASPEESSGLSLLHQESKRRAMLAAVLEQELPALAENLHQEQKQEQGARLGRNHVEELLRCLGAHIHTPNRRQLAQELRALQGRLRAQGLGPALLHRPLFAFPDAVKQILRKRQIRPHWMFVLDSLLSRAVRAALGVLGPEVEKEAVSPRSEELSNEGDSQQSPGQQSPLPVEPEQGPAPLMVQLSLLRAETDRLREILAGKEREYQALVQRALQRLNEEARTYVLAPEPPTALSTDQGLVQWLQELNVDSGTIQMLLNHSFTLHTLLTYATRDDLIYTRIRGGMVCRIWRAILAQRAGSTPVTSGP

[2] = molecular target: Maternal embryonic leucine zipper kinase (Homo sapiens) (UniProt Q14680); assay: Selectivity interaction (Kinase panel (Invitrogen)) EUB0000639a MELK; details: at 200 nM
[3] = molecular target: T2, Tyrosine-protein kinase Lck (Homo sapiens, UniProt P06239); assay: Selectivity interaction (KinomeScan (DiscoverX)) EUB0000229b LCK; details: at 10 µM
T2 sequence (P06239 2-509 limits assumed): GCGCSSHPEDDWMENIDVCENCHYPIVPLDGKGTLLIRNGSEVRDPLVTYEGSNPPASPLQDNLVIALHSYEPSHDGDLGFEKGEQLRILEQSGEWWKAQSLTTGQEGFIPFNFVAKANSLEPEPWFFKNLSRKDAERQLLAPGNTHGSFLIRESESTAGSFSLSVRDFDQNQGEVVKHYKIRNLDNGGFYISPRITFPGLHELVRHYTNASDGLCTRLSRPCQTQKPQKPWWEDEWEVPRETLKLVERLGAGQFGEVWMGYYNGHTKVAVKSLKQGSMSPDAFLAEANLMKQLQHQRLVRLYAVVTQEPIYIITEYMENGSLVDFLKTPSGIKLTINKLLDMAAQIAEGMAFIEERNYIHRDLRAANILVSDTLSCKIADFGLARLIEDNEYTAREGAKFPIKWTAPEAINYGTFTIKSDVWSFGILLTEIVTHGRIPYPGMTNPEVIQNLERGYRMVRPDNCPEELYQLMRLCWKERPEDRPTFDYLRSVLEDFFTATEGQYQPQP

[4] = molecular target: Serine/threonine-protein kinase PAK 2 (Homo sapiens) (UniProt Q13177); assay: Selectivity interaction (ProQinase) EUB0000171b PAK2
[5] = system: Proto-oncogene tyrosine-protein kinase receptor Ret (Homo sapiens), P07949 [V804L]; assay: (§1) Selectivity interaction (ProQinase) EUB0000171b RET
Sequence of Proto-oncogene tyrosine-protein kinase receptor Ret (Homo sapiens), P07949 [V804L] (P07949 whole entry V804L): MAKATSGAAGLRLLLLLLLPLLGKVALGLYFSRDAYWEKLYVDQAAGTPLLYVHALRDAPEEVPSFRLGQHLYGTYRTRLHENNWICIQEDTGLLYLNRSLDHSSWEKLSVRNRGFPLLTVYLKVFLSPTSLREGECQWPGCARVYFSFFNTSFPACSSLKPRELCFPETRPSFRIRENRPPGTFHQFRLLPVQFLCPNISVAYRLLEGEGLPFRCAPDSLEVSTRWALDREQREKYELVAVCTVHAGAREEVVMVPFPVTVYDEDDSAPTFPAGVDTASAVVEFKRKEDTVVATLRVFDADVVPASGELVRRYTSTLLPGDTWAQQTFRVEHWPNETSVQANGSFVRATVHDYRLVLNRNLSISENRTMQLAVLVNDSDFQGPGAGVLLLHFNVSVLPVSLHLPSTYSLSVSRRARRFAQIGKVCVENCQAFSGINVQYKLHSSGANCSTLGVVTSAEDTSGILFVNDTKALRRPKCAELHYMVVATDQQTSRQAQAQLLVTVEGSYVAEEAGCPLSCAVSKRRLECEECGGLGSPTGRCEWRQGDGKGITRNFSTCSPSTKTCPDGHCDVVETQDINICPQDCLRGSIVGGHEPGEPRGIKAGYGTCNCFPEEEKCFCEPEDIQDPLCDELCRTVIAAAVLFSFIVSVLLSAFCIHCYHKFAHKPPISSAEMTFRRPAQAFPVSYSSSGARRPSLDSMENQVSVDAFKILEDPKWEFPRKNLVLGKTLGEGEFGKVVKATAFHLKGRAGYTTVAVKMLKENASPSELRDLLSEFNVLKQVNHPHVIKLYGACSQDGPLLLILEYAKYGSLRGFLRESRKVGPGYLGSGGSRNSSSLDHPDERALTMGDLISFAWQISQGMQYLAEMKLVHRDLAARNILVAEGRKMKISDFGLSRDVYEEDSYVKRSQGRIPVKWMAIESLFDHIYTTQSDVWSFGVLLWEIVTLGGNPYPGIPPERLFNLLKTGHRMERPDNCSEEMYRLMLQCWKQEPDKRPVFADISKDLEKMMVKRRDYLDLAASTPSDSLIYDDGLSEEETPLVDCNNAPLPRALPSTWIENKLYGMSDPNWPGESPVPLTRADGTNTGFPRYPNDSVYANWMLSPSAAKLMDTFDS

[6] = system: Proto-oncogene tyrosine-protein kinase receptor Ret (Homo sapiens), P07949 [M918T]; assay: as §1
Sequence of Proto-oncogene tyrosine-protein kinase receptor Ret (Homo sapiens), P07949 [M918T] (P07949 whole entry M918T): as the sequence (P07949 whole entry V804L) above, with L804V, M918T counted along it

[7] = system: Proto-oncogene tyrosine-protein kinase receptor Ret (Homo sapiens), P07949 [G691S]; assay: as §1
[8] = system: Proto-oncogene tyrosine-protein kinase receptor Ret (Homo sapiens), P07949 [R749T]; assay: as §1
[9] = molecular target: Proto-oncogene tyrosine-protein kinase receptor Ret (Homo sapiens, UniProt P07949); assay: as §1
Sequence of Proto-oncogene tyrosine-protein kinase receptor Ret (P07949 whole entry): as the sequence (P07949 whole entry V804L) above, with L804V counted along it

[10] = system: Proto-oncogene tyrosine-protein kinase receptor Ret (Homo sapiens), P07949 [R813Q]; assay: as §1
[11] = system: Proto-oncogene tyrosine-protein kinase receptor Ret (Homo sapiens), P07949 [Y791F]; assay: as §1
[12] = system: Proto-oncogene tyrosine-protein kinase receptor Ret (Homo sapiens), P07949 [S891A]; assay: as §1
[13] = system: Proto-oncogene tyrosine-protein kinase receptor Ret (Homo sapiens), P07949 [E762Q]; assay: as §1
Sequence of Proto-oncogene tyrosine-protein kinase receptor Ret (Homo sapiens), P07949 [E762Q] (P07949 61-1114 E762Q): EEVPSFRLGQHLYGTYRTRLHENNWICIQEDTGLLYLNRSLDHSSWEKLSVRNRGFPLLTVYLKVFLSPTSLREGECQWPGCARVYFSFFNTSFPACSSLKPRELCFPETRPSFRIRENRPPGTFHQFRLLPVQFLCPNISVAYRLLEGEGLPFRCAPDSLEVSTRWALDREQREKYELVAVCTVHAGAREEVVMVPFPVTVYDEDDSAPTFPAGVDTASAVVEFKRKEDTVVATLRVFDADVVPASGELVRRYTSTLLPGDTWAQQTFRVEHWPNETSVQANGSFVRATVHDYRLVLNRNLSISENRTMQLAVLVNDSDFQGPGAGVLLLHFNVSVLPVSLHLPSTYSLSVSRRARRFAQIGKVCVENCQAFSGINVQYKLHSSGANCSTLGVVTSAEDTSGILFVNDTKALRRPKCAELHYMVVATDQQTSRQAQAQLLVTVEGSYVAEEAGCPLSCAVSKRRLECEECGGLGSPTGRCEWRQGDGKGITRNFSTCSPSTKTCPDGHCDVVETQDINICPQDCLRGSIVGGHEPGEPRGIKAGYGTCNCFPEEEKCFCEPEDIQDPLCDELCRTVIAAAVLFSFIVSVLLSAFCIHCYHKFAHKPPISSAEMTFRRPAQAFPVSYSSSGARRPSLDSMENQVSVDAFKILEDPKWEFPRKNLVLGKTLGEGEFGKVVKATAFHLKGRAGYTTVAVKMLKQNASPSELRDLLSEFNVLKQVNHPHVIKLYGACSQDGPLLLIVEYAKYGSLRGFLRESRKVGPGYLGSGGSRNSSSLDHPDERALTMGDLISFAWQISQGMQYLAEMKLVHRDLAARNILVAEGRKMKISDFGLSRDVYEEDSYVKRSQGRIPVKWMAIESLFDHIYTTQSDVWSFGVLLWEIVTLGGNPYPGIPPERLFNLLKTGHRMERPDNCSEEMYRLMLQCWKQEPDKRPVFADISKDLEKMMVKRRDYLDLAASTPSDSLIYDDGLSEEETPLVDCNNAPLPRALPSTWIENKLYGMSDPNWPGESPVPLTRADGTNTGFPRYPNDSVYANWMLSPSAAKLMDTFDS

[14] = system: Proto-oncogene tyrosine-protein kinase receptor Ret (Homo sapiens), P07949 [V804M]; assay: as §1
[15] = molecular target: Ribosomal protein S6 kinase alpha-2 (Homo sapiens) (UniProt Q15349); assay: Selectivity interaction (KinomeScan (DiscoverX)) EUB0000092b RPS6KA2; details: at 10 µM
[16] = molecular target: T2, Tyrosine-protein kinase Lck; assay: Selectivity interaction (KinomeScan (DiscoverX)) EUB0000655a LCK; details: at 10 µM
[17] = molecular target: T3, STE20-like serine/threonine-protein kinase (Homo sapiens, UniProt Q9H2G2); assay: Selectivity interaction (KinomeScan (DiscoverX)) EUB0001619a SLK; details: at 1 µM
[18] = molecular target: Cyclin-dependent kinase 1 (Homo sapiens) (UniProt P06493); assay: Selectivity interaction (ActivX KiNativ screen (ex vivo kinase selectivity in human PBMCs)) EUB0001619a CDK1; format: cell-based; details: PBMC, at 1 µM
[19] = molecular target: T3, STE20-like serine/threonine-protein kinase; assay: Selectivity interaction (Kinase panel (DSF assay)) EUB0001559a SLK

SMILES: Cc1cc([C@@H](C)Nc2ccccc2C(=O)O)c2nc(N3CCOCC3)cc(=O)n2c1 [AZD-6482]
% of control [1]: 95%

% of inhibition [2]: 25.9%
SMILES: CC[C@@H]1[C@H](F)C(=O)N[C@@H]1COc1nccc2cc(C(N)=O)c(OC)cc12 [ZIMLOVISERTIB]

SMILES: COc1cc(N(C)c2ccnc3ccc(C(F)(F)F)cc23)cc(OC)c1OC
% binding [3]: 80%

% of control ([4]; at 1 µM): 99% | % of control ([4]; at 5 µM): 86% | % of control ([5]; at 1 µM): 88% | % of control ([5]; at 5 µM): 80% | % of control ([6]; at 1 µM): 97% | % of control ([6]; at 5 µM): 82% | % of control ([7]; at 1 µM): 90% | % of control ([7]; at 5 µM): 77% | % of control ([8]; at 1 µM): 96% | % of control ([8]; at 5 µM): 76% | % of control ([9]; at 1 µM): 87% | % of control ([9]; at 5 µM): 72% | % of control ([10]; at 1 µM): 98% | % of control ([10]; at 5 µM): 75% | % of control ([11]; at 1 µM): 96% | % of control ([11]; at 5 µM): 71% | % of control ([12]; at 1 µM): 95% | % of control ([12]; at 5 µM): 74% | % of control ([13]; at 1 µM): 95% | % of control ([13]; at 5 µM): 78% | % of control ([14]; at 1 µM): 98% | % of control ([14]; at 5 µM): 90%
SMILES: C=CC(=O)Nc1cccc(C(=O)Nc2ccc(Nc3cc(-c4[nH]c(SC)nc4C)ccn3)cc2)c1

SMILES: CCC(=O)N1CCN(c2ccc(-n3c(=O)ccc4cnc5ccc(-c6cnc7ccccc7c6)cc5c43)cc2C(F)(F)F)CC1
% of control [15]: 100%

SMILES: CN(C)CCOc1ccc(-c2nc(-c3ccncc3)c(-c3ccc4c(c3)CC/C4=N\O)[nH]2)cc1
% of control [16]: 29%

SMILES: N#Cc1cccc(-c2c[nH]c3ncnc(N4CCOCC4)c23)c1
% of control [17]: 25% | % of inhibition [18]: 13%

dTM [19]: 1 K
SMILES: CN(C(=O)c1cnn2cccnc12)c1cc2c(cc1N1CCOCC1)C(=O)N(C[C@@H](F)C(C)(C)O)C2
